According to paper PMC4767141, “Discovery of Potent, Orally Bioavailable, Small-Molecule Inhibitors of WNT Signaling from a Cell-Based Pathway Screen” (Journal of Medicinal Chemistry, 2015):

What was measured:
TIE2 = biological target: T1, TIE2 (Homo sapiens, UniProt Q02763); experiment: Millipore kinase panel; format: biochemical; settings: read-out: % Control
T1 construct: purchased Millipore KinaseProfiler (kinases); Cerep (receptors and ion channels)

ARK5 = biological target: T2, ARK5 (Homo sapiens, UniProt O60285); experiment: Millipore kinase panel; format: biochemical; settings: read-out: % Control
T2 construct: purchased Millipore KinaseProfiler (kinases); Cerep (receptors and ion channels)
T2 sequence (O60285 whole entry): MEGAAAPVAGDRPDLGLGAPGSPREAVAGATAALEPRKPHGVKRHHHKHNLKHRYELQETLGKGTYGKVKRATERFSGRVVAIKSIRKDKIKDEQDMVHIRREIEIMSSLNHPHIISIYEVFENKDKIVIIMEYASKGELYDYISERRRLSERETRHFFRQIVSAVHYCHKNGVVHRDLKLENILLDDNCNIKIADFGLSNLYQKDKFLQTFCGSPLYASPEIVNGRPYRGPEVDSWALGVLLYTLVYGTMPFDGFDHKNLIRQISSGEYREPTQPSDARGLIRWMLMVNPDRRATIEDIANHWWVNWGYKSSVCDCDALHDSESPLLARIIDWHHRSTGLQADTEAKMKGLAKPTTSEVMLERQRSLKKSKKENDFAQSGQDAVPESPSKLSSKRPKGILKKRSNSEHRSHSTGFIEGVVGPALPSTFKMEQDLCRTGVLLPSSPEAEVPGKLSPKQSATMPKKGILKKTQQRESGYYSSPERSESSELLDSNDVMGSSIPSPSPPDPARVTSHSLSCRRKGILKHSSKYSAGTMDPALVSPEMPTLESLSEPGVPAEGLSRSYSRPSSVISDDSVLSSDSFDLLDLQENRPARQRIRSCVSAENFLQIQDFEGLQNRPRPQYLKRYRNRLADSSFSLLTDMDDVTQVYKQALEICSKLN

RSK3 = biological target: T3, RSK3 (Homo sapiens, UniProt Q15349); experiment: Millipore kinase panel; format: biochemical; settings: read-out: % Control
T3 construct: purchased Millipore KinaseProfiler (kinases); Cerep (receptors and ion channels)
T3 sequence (Q15349 whole entry): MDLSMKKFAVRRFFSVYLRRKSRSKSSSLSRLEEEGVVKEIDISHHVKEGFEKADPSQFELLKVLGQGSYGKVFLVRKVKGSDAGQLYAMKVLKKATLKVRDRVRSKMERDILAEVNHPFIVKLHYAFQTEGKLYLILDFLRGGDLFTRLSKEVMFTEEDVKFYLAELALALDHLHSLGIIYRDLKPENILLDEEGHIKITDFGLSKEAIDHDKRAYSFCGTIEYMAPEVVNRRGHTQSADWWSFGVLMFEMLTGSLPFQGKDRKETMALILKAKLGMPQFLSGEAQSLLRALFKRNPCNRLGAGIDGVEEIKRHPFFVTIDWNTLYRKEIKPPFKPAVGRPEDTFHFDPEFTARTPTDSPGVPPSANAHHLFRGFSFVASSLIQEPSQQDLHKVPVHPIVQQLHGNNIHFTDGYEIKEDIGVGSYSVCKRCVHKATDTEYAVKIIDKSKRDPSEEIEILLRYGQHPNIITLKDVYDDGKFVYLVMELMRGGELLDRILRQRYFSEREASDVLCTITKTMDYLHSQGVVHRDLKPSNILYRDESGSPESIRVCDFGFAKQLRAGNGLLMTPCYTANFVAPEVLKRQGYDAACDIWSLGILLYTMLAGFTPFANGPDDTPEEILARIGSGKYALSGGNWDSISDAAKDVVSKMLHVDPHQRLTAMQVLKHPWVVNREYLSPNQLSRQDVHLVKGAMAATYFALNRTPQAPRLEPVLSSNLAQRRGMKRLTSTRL

MTOR = biological target: T4, MTOR (Homo sapiens, UniProt P42345); experiment: Millipore kinase panel; format: biochemical; settings: read-out: % Control
T4 construct: purchased Millipore KinaseProfiler (kinases); Cerep (receptors and ion channels)

GRK5 = biological target: T5, GRK5 (Homo sapiens, UniProt P34947); experiment: Millipore kinase panel; format: biochemical; settings: read-out: % Control
T5 construct: purchased Millipore KinaseProfiler (kinases); Cerep (receptors and ion channels)

JAK3 = biological target: T6, JAK3 (Homo sapiens, UniProt P52333); experiment: Millipore kinase panel; format: biochemical; settings: read-out: % Control
T6 construct: purchased Millipore KinaseProfiler (kinases); Cerep (receptors and ion channels)
T6 sequence (P52333 whole entry): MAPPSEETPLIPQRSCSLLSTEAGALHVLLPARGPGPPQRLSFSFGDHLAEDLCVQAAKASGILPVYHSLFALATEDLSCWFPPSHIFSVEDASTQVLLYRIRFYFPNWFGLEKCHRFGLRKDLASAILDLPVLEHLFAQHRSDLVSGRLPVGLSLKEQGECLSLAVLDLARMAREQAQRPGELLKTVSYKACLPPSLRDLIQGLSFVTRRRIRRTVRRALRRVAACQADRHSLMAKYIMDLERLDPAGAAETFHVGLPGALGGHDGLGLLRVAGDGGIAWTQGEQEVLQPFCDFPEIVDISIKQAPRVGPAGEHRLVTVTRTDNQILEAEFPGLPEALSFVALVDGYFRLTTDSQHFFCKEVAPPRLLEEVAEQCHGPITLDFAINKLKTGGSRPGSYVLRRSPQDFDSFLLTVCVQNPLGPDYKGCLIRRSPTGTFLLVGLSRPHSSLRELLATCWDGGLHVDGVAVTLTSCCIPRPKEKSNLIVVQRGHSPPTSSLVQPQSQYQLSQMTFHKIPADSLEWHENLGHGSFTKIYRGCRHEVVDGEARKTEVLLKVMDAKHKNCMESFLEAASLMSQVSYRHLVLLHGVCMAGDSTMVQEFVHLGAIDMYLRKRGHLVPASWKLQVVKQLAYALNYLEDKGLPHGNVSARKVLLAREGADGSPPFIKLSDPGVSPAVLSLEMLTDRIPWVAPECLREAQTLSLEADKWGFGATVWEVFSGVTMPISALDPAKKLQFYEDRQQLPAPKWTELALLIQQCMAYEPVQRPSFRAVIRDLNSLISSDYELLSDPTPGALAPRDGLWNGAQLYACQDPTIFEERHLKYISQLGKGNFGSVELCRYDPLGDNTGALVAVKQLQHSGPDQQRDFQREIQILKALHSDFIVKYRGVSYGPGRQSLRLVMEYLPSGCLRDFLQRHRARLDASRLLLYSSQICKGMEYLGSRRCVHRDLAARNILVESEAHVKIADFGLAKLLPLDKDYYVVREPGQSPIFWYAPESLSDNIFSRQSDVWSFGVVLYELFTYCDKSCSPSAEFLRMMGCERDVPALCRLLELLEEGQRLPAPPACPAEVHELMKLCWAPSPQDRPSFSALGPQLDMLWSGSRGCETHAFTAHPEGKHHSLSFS

BRSK1 = biological target: T7, BRSK1 (Homo sapiens, UniProt Q8TDC3); experiment: Millipore kinase panel; format: biochemical; settings: read-out: % Control
T7 construct: purchased Millipore KinaseProfiler (kinases); Cerep (receptors and ion channels)

SGK = biological target: T8, SGK (Homo sapiens, UniProt O00141); experiment: Millipore kinase panel; format: biochemical; settings: read-out: % Control
T8 construct: purchased Millipore KinaseProfiler (kinases); Cerep (receptors and ion channels)

SGK2 = biological target: T9, SGK2 (Homo sapiens, UniProt Q9HBY8); experiment: Millipore kinase panel; format: biochemical; settings: read-out: % Control
T9 construct: purchased Millipore KinaseProfiler (kinases); Cerep (receptors and ion channels)

dopamine transporter (h) = biological target: T10, dopamine transporter (h) (Homo sapiens, UniProt Q01959); experiment: CEREP binding panel; settings: antagonist radioligand, read-out: % Inhibition of Control Specific Binding
T10 construct: purchased Millipore KinaseProfiler (kinases); Cerep (receptors and ion channels)

ALK = biological target: T11, ALK (Homo sapiens, UniProt Q9UM73); experiment: Millipore kinase panel; format: biochemical; settings: read-out: % Control
T11 construct: purchased Millipore KinaseProfiler (kinases); Cerep (receptors and ion channels)

M2 (h) = biological target: T12, M2 (h) (Homo sapiens, UniProt P08172); experiment: CEREP binding panel; settings: antagonist radioligand, read-out: % Inhibition of Control Specific Binding
T12 construct: purchased Millipore KinaseProfiler (kinases); Cerep (receptors and ion channels)

D2S (h) = biological target: T13, D2S (h) (Homo sapiens, UniProt P14416); experiment: CEREP binding panel; settings: antagonist radioligand, read-out: % Inhibition of Control Specific Binding
T13 construct: purchased Millipore KinaseProfiler (kinases); Cerep (receptors and ion channels)

MSK2 = biological target: T14, MSK2 (Homo sapiens, UniProt O75676); experiment: Millipore kinase panel; format: biochemical; settings: read-out: % Control
T14 construct: purchased Millipore KinaseProfiler (kinases); Cerep (receptors and ion channels)

WNK3 = biological target: T15, WNK3 (Homo sapiens, UniProt Q9BYP7); experiment: Millipore kinase panel; format: biochemical; settings: read-out: % Control
T15 construct: purchased Millipore KinaseProfiler (kinases); Cerep (receptors and ion channels)

IR, ACTIVATED = biological target: T16, IR, ACTIVATED (Homo sapiens, UniProt P06213); experiment: Millipore kinase panel; format: biochemical; settings: read-out: % Control
T16 construct: purchased Millipore KinaseProfiler (kinases); Cerep (receptors and ion channels)

SAPK2B = biological target: T17, SAPK2B (Homo sapiens, UniProt Q15759); experiment: Millipore kinase panel; format: biochemical; settings: read-out: % Control
T17 construct: purchased Millipore KinaseProfiler (kinases); Cerep (receptors and ion channels)
T17 sequence (Q15759 whole entry): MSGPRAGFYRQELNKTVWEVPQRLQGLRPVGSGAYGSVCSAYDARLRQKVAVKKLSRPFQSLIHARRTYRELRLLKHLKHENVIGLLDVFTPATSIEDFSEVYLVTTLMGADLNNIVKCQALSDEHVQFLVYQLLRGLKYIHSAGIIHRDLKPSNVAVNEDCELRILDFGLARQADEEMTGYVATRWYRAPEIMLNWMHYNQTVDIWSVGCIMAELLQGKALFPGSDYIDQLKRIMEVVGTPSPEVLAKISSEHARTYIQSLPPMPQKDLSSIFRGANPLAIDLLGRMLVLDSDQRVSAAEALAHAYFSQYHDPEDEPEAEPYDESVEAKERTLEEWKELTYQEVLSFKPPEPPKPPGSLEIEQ

DCAMKL2 = biological target: T18, DCAMKL2 (Homo sapiens, UniProt Q8N568); experiment: Millipore kinase panel; format: biochemical; settings: read-out: % Control
T18 construct: purchased Millipore KinaseProfiler (kinases); Cerep (receptors and ion channels)

STK33 = biological target: T19, STK33 (Homo sapiens, UniProt Q9BYT3); experiment: Millipore kinase panel; format: biochemical; settings: read-out: % Control
T19 construct: purchased Millipore KinaseProfiler (kinases); Cerep (receptors and ion channels)
T19 sequence (Q9BYT3 whole entry): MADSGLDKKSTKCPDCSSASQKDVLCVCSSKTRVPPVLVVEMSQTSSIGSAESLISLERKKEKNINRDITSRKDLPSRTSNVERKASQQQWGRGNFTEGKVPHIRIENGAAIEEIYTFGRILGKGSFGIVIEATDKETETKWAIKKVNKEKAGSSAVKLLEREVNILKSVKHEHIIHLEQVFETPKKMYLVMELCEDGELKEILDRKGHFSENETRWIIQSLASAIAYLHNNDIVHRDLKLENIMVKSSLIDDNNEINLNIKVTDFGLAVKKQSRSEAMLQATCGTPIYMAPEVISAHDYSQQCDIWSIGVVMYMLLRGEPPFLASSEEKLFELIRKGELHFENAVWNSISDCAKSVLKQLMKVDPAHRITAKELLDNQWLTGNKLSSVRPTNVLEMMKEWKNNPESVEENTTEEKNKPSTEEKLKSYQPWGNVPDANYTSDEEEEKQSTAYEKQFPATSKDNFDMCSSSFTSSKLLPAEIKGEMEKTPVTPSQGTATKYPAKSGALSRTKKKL

IKKALPHA = biological target: T20, IKKALPHA (Homo sapiens, UniProt O15111); experiment: Millipore kinase panel; format: biochemical; settings: read-out: % Control
T20 construct: purchased Millipore KinaseProfiler (kinases); Cerep (receptors and ion channels)

EGFR = biological target: T21, EGFR (Homo sapiens, UniProt P00533); experiment: Millipore kinase panel; format: biochemical; settings: read-out: % Control
T21 construct: purchased Millipore KinaseProfiler (kinases); Cerep (receptors and ion channels)

CK2 = biological target: T22, CK2 (Homo sapiens, UniProt P68400); experiment: Millipore kinase panel; format: biochemical; settings: read-out: % Control
T22 construct: purchased Millipore KinaseProfiler (kinases); Cerep (receptors and ion channels)

MELK = biological target: T23, MELK (Homo sapiens, UniProt Q14680); experiment: Millipore kinase panel; format: biochemical; settings: read-out: % Control
T23 construct: purchased Millipore KinaseProfiler (kinases); Cerep (receptors and ion channels)

GABA (non-selective) = experiment: CEREP binding panel; settings: 10 μM, agonist radioligand
CAMKIIBETA = biological target: T24, CAMKIIBETA (Homo sapiens, UniProt Q13554); experiment: Millipore kinase panel; format: biochemical; settings: read-out: % Control
T24 construct: purchased Millipore KinaseProfiler (kinases); Cerep (receptors and ion channels)
T24 sequence (Q13554 whole entry): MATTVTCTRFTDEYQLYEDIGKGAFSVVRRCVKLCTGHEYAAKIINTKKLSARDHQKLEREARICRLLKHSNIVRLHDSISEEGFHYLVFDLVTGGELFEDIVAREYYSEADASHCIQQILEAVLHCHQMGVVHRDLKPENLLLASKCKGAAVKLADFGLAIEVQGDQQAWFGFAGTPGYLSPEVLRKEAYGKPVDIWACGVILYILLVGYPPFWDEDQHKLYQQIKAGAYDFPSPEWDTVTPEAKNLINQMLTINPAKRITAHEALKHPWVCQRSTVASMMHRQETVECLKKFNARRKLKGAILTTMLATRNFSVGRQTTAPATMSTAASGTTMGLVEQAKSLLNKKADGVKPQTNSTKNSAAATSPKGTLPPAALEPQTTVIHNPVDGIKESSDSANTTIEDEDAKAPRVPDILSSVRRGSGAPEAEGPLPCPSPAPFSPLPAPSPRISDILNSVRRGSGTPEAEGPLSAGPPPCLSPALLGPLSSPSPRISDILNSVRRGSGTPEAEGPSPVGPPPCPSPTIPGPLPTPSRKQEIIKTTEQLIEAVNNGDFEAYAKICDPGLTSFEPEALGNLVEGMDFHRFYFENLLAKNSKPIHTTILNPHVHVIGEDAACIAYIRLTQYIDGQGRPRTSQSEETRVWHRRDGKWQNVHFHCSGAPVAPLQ

5-HT transporter (h) = biological target: T25, 5-HT transporter (h) (Homo sapiens, UniProt P31645); experiment: CEREP binding panel; settings: antagonist radioligand, read-out: % Inhibition of Control Specific Binding
T25 construct: purchased Millipore KinaseProfiler (kinases); Cerep (receptors and ion channels)

PAK5 = biological target: T26, PAK5 (Homo sapiens, UniProt Q9P286); experiment: Millipore kinase panel; format: biochemical; settings: read-out: % Control
T26 construct: purchased Millipore KinaseProfiler (kinases); Cerep (receptors and ion channels)

PAK6 = biological target: T27, PAK6 (Homo sapiens, UniProt Q9NQU5); experiment: Millipore kinase panel; format: biochemical; settings: read-out: % Control
T27 construct: purchased Millipore KinaseProfiler (kinases); Cerep (receptors and ion channels)

PIM-2 = biological target: T28, PIM-2 (Homo sapiens, UniProt Q9P1W9); experiment: Millipore kinase panel; format: biochemical; settings: read-out: % Control
T28 construct: purchased Millipore KinaseProfiler (kinases); Cerep (receptors and ion channels)

ITK = biological target: T29, ITK (Homo sapiens, UniProt Q08881); experiment: Millipore kinase panel; format: biochemical; settings: read-out: % Control
T29 construct: purchased Millipore KinaseProfiler (kinases); Cerep (receptors and ion channels)

FYN = biological target: T30, FYN (Homo sapiens, UniProt P06241); experiment: Millipore kinase panel; format: biochemical; settings: read-out: % Control
T30 construct: purchased Millipore KinaseProfiler (kinases); Cerep (receptors and ion channels)

EPHA5 = biological target: T31, EPHA5 (Homo sapiens, UniProt P54756); experiment: Millipore kinase panel; format: biochemical; settings: read-out: % Control
T31 construct: purchased Millipore KinaseProfiler (kinases); Cerep (receptors and ion channels)

EEF-2K = biological target: T32, EEF-2K (Homo sapiens, UniProt O00418); experiment: Millipore kinase panel; format: biochemical; settings: read-out: % Control
T32 construct: purchased Millipore KinaseProfiler (kinases); Cerep (receptors and ion channels)

PKCMU = biological target: T33, PKCMU (Homo sapiens, UniProt Q15139); experiment: Millipore kinase panel; format: biochemical; settings: read-out: % Control
T33 construct: purchased Millipore KinaseProfiler (kinases); Cerep (receptors and ion channels)

MKK7BETA = biological target: T34, MKK7BETA (Homo sapiens, UniProt O14733); experiment: Millipore kinase panel; format: biochemical; settings: read-out: % Control
T34 construct: purchased Millipore KinaseProfiler (kinases); Cerep (receptors and ion channels)
T34 sequence (O14733 whole entry): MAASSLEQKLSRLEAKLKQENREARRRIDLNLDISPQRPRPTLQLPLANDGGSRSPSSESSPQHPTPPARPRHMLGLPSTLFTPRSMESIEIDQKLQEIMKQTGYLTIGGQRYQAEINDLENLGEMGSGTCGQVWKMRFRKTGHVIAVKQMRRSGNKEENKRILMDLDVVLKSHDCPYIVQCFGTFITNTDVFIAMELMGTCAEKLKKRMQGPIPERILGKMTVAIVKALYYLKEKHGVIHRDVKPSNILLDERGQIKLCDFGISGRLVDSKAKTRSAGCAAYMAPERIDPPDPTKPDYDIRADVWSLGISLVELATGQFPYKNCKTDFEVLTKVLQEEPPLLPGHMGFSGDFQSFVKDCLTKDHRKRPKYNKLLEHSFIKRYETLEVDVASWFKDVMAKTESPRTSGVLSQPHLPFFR

PKD2 = biological target: T35, PKD2 (Homo sapiens, UniProt Q9BZL6); experiment: Millipore kinase panel; format: biochemical; settings: read-out: % Control
T35 construct: purchased Millipore KinaseProfiler (kinases); Cerep (receptors and ion channels)

TBK1 = biological target: T36, TBK1 (Homo sapiens, UniProt Q9UHD2); experiment: Millipore kinase panel; format: biochemical; settings: read-out: % Control
T36 construct: purchased Millipore KinaseProfiler (kinases); Cerep (receptors and ion channels)

FLT4 = biological target: T37, FLT4 (Homo sapiens, UniProt P35916); experiment: Millipore kinase panel; format: biochemical; settings: read-out: % Control
T37 construct: purchased Millipore KinaseProfiler (kinases); Cerep (receptors and ion channels)

TAK1 = biological target: T38, TAK1 (Homo sapiens, UniProt O43318); experiment: Millipore kinase panel; format: biochemical; settings: read-out: % Control
T38 construct: purchased Millipore KinaseProfiler (kinases); Cerep (receptors and ion channels)

5-HT1B = biological target: T39, 5-HT1B (Rattus norvegicus, UniProt P28564); experiment: CEREP binding panel; settings: antagonist radioligand, read-out: % Inhibition of Control Specific Binding
T39 construct: purchased Millipore KinaseProfiler (kinases); Cerep (receptors and ion channels)

MC4 (h) = biological target: T40, MC4 (h) (Homo sapiens, UniProt P32245); experiment: CEREP binding panel; settings: agonist radioligand, read-out: % Inhibition of Control Specific Binding
T40 construct: purchased Millipore KinaseProfiler (kinases); Cerep (receptors and ion channels)
T40 sequence (P32245 whole entry): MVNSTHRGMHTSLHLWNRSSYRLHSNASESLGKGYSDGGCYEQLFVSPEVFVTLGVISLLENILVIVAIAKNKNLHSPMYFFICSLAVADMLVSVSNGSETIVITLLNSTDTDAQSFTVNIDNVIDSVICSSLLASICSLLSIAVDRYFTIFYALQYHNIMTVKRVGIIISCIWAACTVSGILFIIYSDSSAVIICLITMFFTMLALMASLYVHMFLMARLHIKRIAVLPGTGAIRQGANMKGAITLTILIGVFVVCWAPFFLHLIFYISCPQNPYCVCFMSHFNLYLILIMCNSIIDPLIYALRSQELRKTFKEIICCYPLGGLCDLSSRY

ALK4 = biological target: T41, ALK4 (Homo sapiens, UniProt P36896); experiment: Millipore kinase panel; format: biochemical; settings: read-out: % Control
T41 construct: purchased Millipore KinaseProfiler (kinases); Cerep (receptors and ion channels)

PRAK = biological target: T42, PRAK (Homo sapiens, UniProt Q8IW41); experiment: Millipore kinase panel; format: biochemical; settings: read-out: % Control
T42 construct: purchased Millipore KinaseProfiler (kinases); Cerep (receptors and ion channels)

β2 (h) = biological target: T43, β2 (h) (Homo sapiens, UniProt P07550); experiment: CEREP binding panel; settings: agonist radioligand, read-out: % Inhibition of Control Specific Binding
T43 construct: purchased Millipore KinaseProfiler (kinases); Cerep (receptors and ion channels)

O=C1NCCC12CCN(c1c(Cl)cncc1-c1ccc(N3CCOCC3)cc1)CC2 [Compound 44, 8-(3-Chloro-5-(4-morpholin-4-ylphenyl)pyridin-4-yl)-2,8-diazaspiro[4.5]decan-1-one]
remaining activity at 1 µM (TIE2): 19% | remaining activity at 1 µM (ARK5): -2% | remaining activity at 1 µM (RSK3): 1% | remaining activity at 1 µM (MTOR): 18% | remaining activity at 1 µM (GRK5): 0% | remaining activity at 1 µM (JAK3): -4% | remaining activity at 1 µM (BRSK1): 5% | remaining activity at 1 µM (SGK): 16% | remaining activity at 1 µM (SGK2): -5% | inhibition at 10 µM (dopamine transporter (h)): -13% | remaining activity at 1 µM (ALK): -6% | inhibition at 10 µM (M2 (h)): 24% | inhibition at 10 µM (D2S (h)): 9% | remaining activity at 1 µM (MSK2): 0% | remaining activity at 1 µM (WNK3): 0% | remaining activity at 1 µM (IR, ACTIVATED): 17% | remaining activity at 1 µM (SAPK2B): 4% | remaining activity at 1 µM (DCAMKL2): 0% | remaining activity at 1 µM (STK33): 4% | remaining activity at 1 µM (IKKALPHA): 22% | remaining activity at 1 µM (EGFR): 5% | remaining activity at 1 µM (CK2): 12% | remaining activity at 1 µM (MELK): -19% | % Inhibition of Control Specific Binding (GABA (non-selective)): 10% | remaining activity at 1 µM (CAMKIIBETA): 0% | inhibition at 10 µM (5-HT transporter (h)): 17% | remaining activity at 1 µM (PAK5): 8% | remaining activity at 1 µM (PAK6): 13% | remaining activity at 1 µM (PIM-2): 7% | remaining activity at 1 µM (ITK): 16% | remaining activity at 1 µM (FYN): 10% | remaining activity at 1 µM (EPHA5): 11% | remaining activity at 1 µM (EEF-2K): -8% | remaining activity at 1 µM (PKCMU): -22% | remaining activity at 1 µM (MKK7BETA): 17% | remaining activity at 1 µM (PKD2): 0% | remaining activity at 1 µM (TBK1): 5% | remaining activity at 1 µM (FLT4): -5% | remaining activity at 1 µM (TAK1): -3% | inhibition at 10 µM (5-HT1B): -29% | inhibition at 10 µM (MC4 (h)): 10% | remaining activity at 1 µM (ALK4): 14% | remaining activity at 1 µM (PRAK): -8% | inhibition at 10 µM (β2 (h)): -3%
